Key:
[1] = test system: Ischemia-induced ventricular tachycardia; experiment: In vivo acute ischemia-induced ventricular tachycardia study; design: species or system dog; conditions: for VT (per/minute): number of VT episodes per minute following epicardial placement: average for N dogs, patches (dose mg/kg/2hr): lidocaine 28% Tecoflex (0.23, N 5), propranolol 30% MPU-5 (0.14, 6), D-sotalol 30% MPU-5 (0.20, 9), verapamil 30% MPU-5 (0.30, 11); for Effectiveness against ischemia-induced ventricular tachycardia: in words, epicardial controlled release
Procedure: Controlled release dosage forms of the present invention have been successful in preventing ischemia-induced ventricular tachycardia in a canine model. Ventricular occlusions of the left anterior descending coronary artery of a dog were produced by exposing and isolating the artery in a dog under anesthesia. A snare with a sliding closure was placed around the artery. Ventricular tachycardia was produced by closing the snare for 10 minutes to shut off the blood supply to left ventricle. The snare was opened for an hour, and then the snare was closed for 10 minutes. This procedure can be repeated up six times and simulates a heart attack. Ventricular tachycardia (VT) was defined as the occurrence of 3 or more sequential ventricular premature beats. The efficacy of various controlled release dosage forms of the present invention were documented by continuous recording of the electrophysiologic data on a Hewlett Packard Physiologic Records, and an 8-channel analogue tape deck (Hewlett Packard, Philadelphia, Pa.).
The data is expressed as the average for the number N of dogs per group. Episodes of VT were paced at one per minutes.

[2] = test system: Ventricular tachycardia (VT) induced by rapid ventricular pacing; experiment: In vivo ventricular pacing study: conversion of ventricular tachycardia induced by rapid ventricular pacing; design: species or system dog (male mongrel dogs); conditions: for Effectiveness in converting ventricular tachycardia: in words, controlled release dosage form, epicardial; for Conversion / Peak % Increase in VT Threshold: mean ± standard error; for Conversion: patches: lidocaine 28% in Tecoflex (N 16), procainamide 30% in Thyomer (7), amiodarone 30% in Thyomer with 10% polyethyleneglycol 200 (3), NiCl2 50% in Thyomer (4); for Peak % Increase in VT Threshold: same patches: lidocaine/Tecoflex, procainamide/Thyomer, amiodarone/Thyomer with polyethyleneglycol, NiCl2/Thyomer
Excerpt: Ventricular tachycardia was induced and maintained by rapid ventricular pacing in an open-chest dog model using male mongrel dogs (10-15 kg). Three sets of bipolar epicardial electrodes were placed at 2 cm distances from the left ventricular apex toward the base of the heart. A Grass Model 8 stimulator (Grass Instruments, delivered continuous electrical stimulation as 2-msec square wave impulses with a 50-msec cycle length via a stimulus isolation unit (Bloom Associates, Reading, Pa.). The stimulus isolation unit also repeatedly monitored the pacing current thresholds. After induction of ventricular tachycardia, a controlled release dosage form of the present invention in the shape of a patch of the drug-loaded polymeric matrix material was placed adjacent to the stimulating electrode. The time required to convert the ventricular tachycardia to sinus rhythm was measured, as well as the time course of the quantitative change for sustaining the induction of ventricular tachycardia. The effects of controlled release were monitored for up to 4 hours after conversion to normal sinus rhythm.
All other dosage forms were fabricated by dissolving the therapeutic agent in dimethylacetamide at a concentration of 100 mg/ml therapeutic agent. This solution was further dissolved in a 10% solution of a Thyomer polyurethane and solvent cast into a 0.2 mm films. […] Controls comprised patches of each polymeric matrix material.

[3] = oral; cited from earlier work
[4] = test system: normal cardiac function; experiment: Other studies: effects of transmyocardial lidocaine on normal cardiac function; type: in vivo; conditions: lidocaine administered by transmyocardial route

| SMILES | VT (per/minute): number of VT episodes per minute following epicardial placement [1] | Peak % Increase in VT Threshold [2] [%] | other results |
| --- | --- | --- | --- |
| CC(C)NCC(O)COc1cccc2ccccc12 (stereo not shown) [Propranolol, propranolol] | 1.22 ± .12 per/minute | – | – |
| [Cl][Ni][Cl] [NiCl2, nickel chloride] | – | 122.6 ± 101.3 | Effectiveness in converting ventricular tachycardia [2]: effective to convert tachycardia to normal sinus rhythm; Conversion [2]: 2.08 ± 1.71 min |
| CCCCc1oc2ccccc2c1C(=O)c1cc(I)c(OCCN(CC)CC)c(I)c1 [Amiodarone, amiodarone] | – | 36.1 ± 12.7 | Severe side effects, share of patients [3]: over 70% |
| COc1ccc(CCN(C)CCCC(C#N)(c2ccc(OC)c(OC)c2)C(C)C)cc1OC (stereo not shown) [Verapamil, verapamil] | 0.10 ± .03 per/minute | – | Effectiveness against ischemia-induced ventricular tachycardia [1]: the most effective for arrhythmias due to acute myocardial ischemia |
| CC(C)NC[C@@H](O)c1ccc(NS(C)(=O)=O)cc1 [D-Sotalol, d-sotalol] | .046 ± .11 per/minute | – | Effectiveness against ischemia-induced ventricular tachycardia [1]: the most effective for arrhythmias due to acute myocardial ischemia |
| CCN(CC)CCNC(=O)c1ccc(N)cc1 [Procainamide, procainamide] | – | 206.7 ± 172.6 | Effectiveness in converting ventricular tachycardia [2]: effective in converting ventricular tachycardia; Conversion [2]: 4.05 ± 3.15 min |
| CCN(CC)CC(=O)Nc1c(C)cccc1C [Lidocaine, lidocaine] | 0.6 ± 0.2 per/minute | 367.7 ± 183.1 | Other effects on normal cardiac function [4]: no other significant effects on normal cardiac function |
